Experimental data from ChEMBL document CHEMBL1201862, “PubChem BioAssay data set” (2004).
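All cell lines were grown in 96-well plates and treated with compound for 48 hours. GI50 marks 50% less growth.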 Activity calls are given as the source filed them. No stated cut-off is given here; in the data, active = GI50 up to about 1.1 µM and inactive = higher.

Tests used:
Test in all cases: inhibition of tumour cell growth, NCI panel, 48 h
SN12C = tested on: SN12C
SF-295 = tested on: SF-295
MDA-MB-231 = tested on: MDA-MB-231
CAKI-1 = tested on: CAKI-1
786-0 = tested on: 786-0
TK-10 = tested on: TK-10
NCI-H23 = tested on: NCI-H23
U-251 = tested on: U-251
SNB-19 = tested on: SNB-19
HCT-116 = tested on: HCT-116
MOLT-4 = tested on: MOLT-4
HOP-92 = tested on: HOP-92
NCI-H226 = tested on: NCI-H226
Hs-578T = tested on: Hs-578T
SK-MEL-28 = tested on: SK-MEL-28
UO-31 = tested on: UO-31
HOP-62 = tested on: HOP-62
OVCAR-3 = tested on: OVCAR-3
SK-OV-3 = tested on: SK-OV-3

Row | SMILES | GI50 (SN12C) | GI50 (SF-295) | GI50 (MDA-MB-231) | GI50 (CAKI-1) | GI50 (786-0) | GI50 (TK-10) | GI50 (NCI-H23) | GI50 (U-251) | GI50 (SNB-19) | GI50 (HCT-116) | GI50 (MOLT-4) | GI50 (HOP-92) | GI50 (NCI-H226) | GI50 (Hs-578T) | GI50 (SK-MEL-28) | GI50 (UO-31) | GI50 (HOP-62) | GI50 (OVCAR-3) | GI50 (SK-OV-3)
1 | O=S(=O)(Cc1cnc(O)nc1O)Cc1cnc(O)nc1O | > 100 µM (inactive) | > 100 µM (inactive) | > 100 µM (inactive) | > 100 µM (inactive) | > 100 µM (inactive) | > 100 µM (inactive) | > 100 µM (inactive) | > 100 µM (inactive) | > 100 µM (inactive) | > 100 µM (inactive) | > 100 µM (inactive) | > 100 µM (inactive) | > 100 µM (inactive) | > 100 µM (inactive) | > 100 µM (inactive) | > 100 µM (inactive) | – | – | –
2 | C[C@@]12c3c4ccc(C=O)c3Oc3ccc(C=O)c(c31)Oc1c(C=O)ccc(c12)O4 | > 100 µM (inactive) | > 100 µM (inactive) | > 100 µM (inactive) | – | > 100 µM (inactive) | > 100 µM (inactive) | > 100 µM (inactive) | > 100 µM (inactive) | > 100 µM (inactive) | > 100 µM (inactive) | > 100 µM (inactive) | 0.565 µM (active) | > 100 µM (inactive) | > 100 µM (inactive) | > 100 µM (inactive) | > 100 µM (inactive) | > 100 µM (inactive) | > 100 µM (inactive) | > 100 µM (inactive)
3 | O=C(CNC(c1ccccc1)(c1ccccc1)c1ccccc1)NC1CCCCC1NC(=O)CNC(c1ccccc1)(c1ccccc1)c1ccccc1 (centres undefined) | > 100 µM (inactive) | > 100 µM (inactive) | > 100 µM (inactive) | > 100 µM (inactive) | 85.7 µM (inactive) | > 100 µM (inactive) | > 100 µM (inactive) | 43 µM (inactive) | > 100 µM (inactive) | > 100 µM (inactive) | > 100 µM (inactive) | 12 µM (inactive) | – | 32.9 µM (inactive) | > 100 µM (inactive) | > 100 µM (inactive) | 27.8 µM (inactive) | > 100 µM (inactive) | > 100 µM (inactive)
4 | Cc1cc(NS(=O)(=O)c2ccc(Nc3c4ccccc4nc4c(C(=O)NC(CO)(CO)CO)cccc34)cc2)no1 | 23.1 µM (inactive) | 41 µM (inactive) | 37.9 µM (inactive) | 42.2 µM (inactive) | 34.4 µM (inactive) | 29.2 µM (inactive) | 43.6 µM (inactive) | 34.2 µM (inactive) | 34.4 µM (inactive) | – | 8.75 µM (inactive) | 32.7 µM (inactive) | – | 25.1 µM (inactive) | 52.8 µM (inactive) | 48.6 µM (inactive) | 25.1 µM (inactive) | 39.3 µM (inactive) | 35.2 µM (inactive)
5 | CCCNC(C#N)c1ccc(OCCCCCCCCCCOc2ccc(C(C#N)NCCC)cc2)cc1 (centres undefined) | 68.9 µM (inactive) | 31.3 µM (inactive) | > 100 µM (inactive) | – | > 100 µM (inactive) | 29.2 µM (inactive) | 51.3 µM (inactive) | 20.9 µM (inactive) | 33.2 µM (inactive) | 31.9 µM (inactive) | 17.1 µM (inactive) | 32.4 µM (inactive) | 30.8 µM (inactive) | 37.7 µM (inactive) | > 100 µM (inactive) | 51.8 µM (inactive) | 42.8 µM (inactive) | 30.5 µM (inactive) | 64 µM (inactive)
6 | O=C(CCCN1CCc2[nH]c3cc(F)ccc3c2C1)c1ccc(F)cc1 | 14.3 µM (inactive) | 17.4 µM (inactive) | 12.5 µM (inactive) | > 100 µM (inactive) | 13.5 µM (inactive) | 12.4 µM (inactive) | 14.1 µM (inactive) | 16.3 µM (inactive) | > 100 µM (inactive) | 11.8 µM (inactive) | 13 µM (inactive) | 2.26 µM (inactive) | 18.7 µM (inactive) | 10.5 µM (inactive) | 20.3 µM (inactive) | – | 16.1 µM (inactive) | 14.2 µM (inactive) | –
